Experimental data taken from patent publication US7659278B2, “Use of low molecular weight compounds for preparing a medicament useful in treating mutant p53 mediated diseases” (Aprea AB, priority 2002, dated 2010).

Legend:
Saos-2-His-273 cells = experiment: Colony formation assay, Saos-2-His-273; type: cell-based, human
Excerpt: (§1) Colonies were stained with Giemsa and counted 14 days after seeding.
(§2) The cells were Giemsa stained and scored for the appearance of colonies after 14 days.

Saos-2 cells lacking p53 = experiment: Colony formation assay, Saos-2 lacking p53; type: cell-based, human; conditions: 5 μM, colonies counted after 14 days
Excerpt: as §1, §2

[1] = tested on: KRC/Y renal carcinoma cells (Phe-176 mutant p53); experiment: Apoptosis induction by FACS, KRC/Y cells; type: cell-based, human; conditions: MIRA-1 50 μM, PRIMA-1 75 μM
Method: The percentage of apoptotic cells was detected by FACS analysis as it was described in FIG. 3A.
Cells were placed on 12-well plate at a density of 30000/cm^2 and treated with compounds. After 48 h incubation cells were harvested by trypsinization, fixed with 70% ethanol, treated with RNase A (0.25 mg/ml) and stained with propidium iodide (0.02 mg/ml). Samples were analyzed on a Becton Dickinson FACScan. Data were analyzed by the CellQuest software, version 3.2.1.
Thus, it appears that the defect caused by substitution of the Cys residue at position 176 is irreversible. The substitution of this Cys residue abolishes the binding of a Zn atom which holds together the DNA-binding loops of the p53 core domain. Therefore, the unfolding of this mutant p53 protein is probably too extensive to be restored.

[2] = molecular target: T1, GST-wild type p53 protein (Homo sapiens, UniProt P04637); experiment: ELISA of p53 conformation epitopes (PAb1620, PAb240, DO-1), recombinant protein; type: biochemical; conditions: for appearance of PAb240 epitope (unfolding) upon heating: heating at 37° C.; for preservation of PAb 1620 epitope upon heating: recombinant wild type and mutant p53 proteins, 30 min at 37° C.
T1 construct: made in house
Method: Absorbance of the control sample incubated on ice was taken as 100%.
The procedure was performed with or without tested compounds. The ELISA analyses were done as described by (Foster et al., 1999). Briefly, after the treatment, samples were diluted with coating buffer (150 mM KCL, 25 mM HEPES) supplemented with 10 mM DTT. The whole mixture was apply to ELISA plates (MaxiSorp, Nunc) and incubated at +4° C. for 35 min. The wells were washed with coating buffer. The wells were blocked by 5% skim milk in PBS by incubating at +4° C. for 1 h. Wells were rinsed twice with PBS followed by addition of mouse primary antibodies (PAb 1620 or PAb 240) diluted 1:250 in coating buffer. Samples were incubated at +4° C. for 30 min. Wells were rinsed twice with PBS. After that, a secondary antibody (anti-mouse, conjugated with horse radish peroxidase) was incubated with samples at +4° C. for 30 min. Then plates were washed 5 times with PBS and a peroxidase substrate was added. An absorbance at λ405 nm was monitored by ELISA reader.

[3] = molecular target: T2, endogenous mutant p53 proteins (Homo sapiens, UniProt P04637, C176F); type: biochemical; conditions: KRC/Y cell extract
T2 construct: cellular extracts of human tumor cell lines carrying different p53 mutants as a source for endogenous p53 protein; endogenous in cells; host or cells: human tumour cell lines (e.g. Burkitt lymphoma BL-60; KRC/Y renal carcinoma)
Method: (§3) PAb421 antibody was added to all reaction mixtures. […] Monoclonal antibody PAb421 was added to the reaction mixtures in lanes 2-8; PAb1801 was added to the reaction mixtures in lanes 9-15.
(§4) The GST-p53 proteins were prepared as described (Selivanova et al., 1997). Band shift assays were performed in binding buffer containing 100 mM HEPES pH 7.5, 50 mM KCl, 1 mg/ml BSA, 0.1% Triton X-100, 2 mM MgC12 and 1 mM DTT essentially as in (Selivanova et al., 1996).

[4] = molecular target: T3, endogenous mutant p53 proteins (Homo sapiens, UniProt P04637, R282W); type: biochemical; conditions: cell extracts from Burkitt lymphoma BL-60 cells
T3 construct: cellular extracts of human tumor cell lines carrying different p53 mutants as a source for endogenous p53 protein; endogenous in cells; host or cells: human tumour cell lines (e.g. Burkitt lymphoma BL-60; KRC/Y renal carcinoma)
Method: as §3, §4

[5] = molecular target: T4, GST-His-175 mutant p53 protein (Homo sapiens, UniProt P04637, R175H); experiment: Band shift assay, GST-His-175 mutant p53; type: biochemical
T4 construct: made in house
Method: as §3, §4

SKOV-His-175 cells = experiment: WST-1 proliferation assay, SKOV-His-175 cells (cycloheximide, His-175-22/23 comparison); type: cell-based, human; conditions: for increase in cell survival after cycloheximide pretreatment: cycloheximide before compound, WST-1
[6] = tested on: p21 and MDM2 in H1299-His-175 cells; experiment: Western blot of p53 target genes p21 and MDM2, H1299-His-175; type: cell-based, human
[7] = tested on: p53-responsive lacZ reporter in A431 cells (endogenous His-273 mutant p53); experiment: p53-responsive lacZ reporter in A431 cells; type: cell-based, human; conditions: 50 μM for 20 hours
[8] = Toxicity assessment in SCID mice; type: in vivo
Method: (§5) All animal studies were approved by the local animal ethical committee and animal care was in accordance with institutional guidelines. For toxicity assessment, 12 SCID mice (average weight 25 g) were divided in 4 groups. […] Control animals were injected with PBS. We measured weights of the mice for 1 month after the last injection. […] After 3 days the mice were divided into 4 groups. […] Injections were performed twice daily for 3 days. Tumour volume was measured during 2 months.
(§6) In the untreated control group, the average tumour volume after 59 days was 555.7±284 mm3 (means±SE, n=3).

[9] = tested on: Saos-2-His-273 human tumour xenografts; experiment: Anti-tumour activity, Saos-2-His-273 xenograft in SCID mice; type: in vivo; conditions: after 59 days
Method: SCID mice were injected with Saos-2-His-273 cells. […] Tumour volumes were measured once in three days for two months.
as §5, §6

[10] = recombinant protein treated with compound
[11] = absence of mutant p53 expression
[12] = cells expressing mutant p53, PRIMA-1 25 μM, MIRA-1 10 μM

Structure (SMILES)	induction of apoptosis [1]	appearance of PAb240 epitope (unfolding) upon heating [2]	increase in PAb1620+ fraction [2, 10]	reduction in PAb240+ fraction [2, 10]	preservation of PAb 1620 epitope upon heating [2]	increase in cell survival after cycloheximide pretreatment (SKOV-His-175 cells)	induction of MDM2 and p21 [6, 11]	induction of MDM2 and p21 [6, 12]	further results
CCCOCN1C(=O)C=CC1=O [MIRA-1, 1-(propoxymethyl)-maleimide]	much less prominent as compared to Saos-2-His-273 cells	able to prevent unfolding of p53 proteins	About 40%	−20%	preserve the conformation-dependent epitope for PAb 1620 antibody	about 4 fold	did not cause any induction of MDM2 nor p21	solid induction of both MDM2 and p21	number of colonies, of untreated control (Saos-2-His-273 cells; 5 μM, colonies counted after 14 days): 15%; inhibition of colony formation (Saos-2 cells lacking p53): 48%; reactivation of Phe-176 mutant DNA binding [3]: not reactivated; restoration of DNA binding of Trp-282 mutant p53 [4]: able to restore the sequence-specific DNA binding of the endogenous Trp-282 mutant p53; restoration of specific DNA binding [5]: able to restore the specific DNA binding of the GST-His-175 mutant p53 protein; sensitivity of SKOV-His-175 cells in comparison with SKOV-His-175-22/23 cells (SKOV-His-175 cells; after compound treatment): at least 3 fold
O=C1C2CCN(CC2)C1(CO)CO [PRIMA-1, 2,2-bis(hydroxymethyl)-1-azabicyclo[2.2.2]octan-3-one]	much less prominent as compared to Saos-2-His-273 cells	able to prevent unfolding of p53 proteins	40%	corresponding decrease	preserve the conformation-dependent epitope for PAb 1620 antibody	4 fold	did not cause any induction of MDM2 nor p21	solid induction of both MDM2 and p21	doses inhibitory in a mutant p53-dependent manner (Saos-2-His-273 cells; colony formation, 14 days): 50 to 100 µM; DO-1+ fraction [2, 10]: remained unchanged; lacZ reporter induction [7]: appearance of lacZ-positive cells; average weight of mice ([8]; 100 mg/kg i.v. daily for 5 days, after one month of observation): 20 ± 0.2 g; changes in behavior or weight ([8]; intravenous injections, compared with untreated control): did not cause any obvious changes in behavior or weight; average tumour volume ([9]; 20 mg/kg i.v. twice a day for three days): 53±48.5 mm3; average tumour volume ([9]; intratumour 20 mg/kg twice a day for three days): 5.3±2.7 mm3; average tumour volume ([9]; intravenous 100 mg/kg twice a day for three days): 11.7±8 mm3
